Assay results taken from paper PMC7998309, “Structural-Based Optimizations of the Marine-Originated Meridianin C as Glucose Uptake Agents by Inhibiting GSK-3β” (Marine Drugs, 2021).

Key:
[1] = test system: HepG2 cells; experiment: Cell glucose uptake assay in HepG2 cells; assay type: cell-based, human; settings: relative glucose uptake at 5 µM in HepG2 cells, 3 h, compared with original glucose concentration of the medium; na = not active at 5 µM
Protocol: (§1) The hepatocyte cell line HepG2 cells obtained from the Type Culture Collection of the Chinese Academy of Sciences (Shanghai, China) were maintained in high-glucose DMEM (Gibco) supplemented with 10% fetal bovine serum (FBS) and 1% penicillin-streptomycin in an atmosphere of 5% CO2 at 37 °C.
Into a 96-well plate, 5 × 10^3 HepG2 cells per well were seeded. After 48 h, phenol red-free DMEM (Gibco) with 1% FBS was transferred to deprive the cells overnight, and then the tested compounds dissolved in a glucose-HEPES buffer (glucose concentration was 100 µg/mL) at a concentration of 5 µM were added to the culture system. Three hours later, the culture supernatants were collected and the glucose concentrations were detected using the Glucose (GO) Assay Kit (Sigma-Aldrich Corp.). Compared with the original glucose concentration of the buffer, the relative glucose uptake was calculated.

[2] = MTT assay for cell viability (cytotoxicity); assay type: cell-based, human; settings: human; HepG2 cells, 48 h incubation, MTT
Protocol: as §1
Into a 96-well plate, 1 × 10^3 HepG2 cells per well were seeded. After 24 h, stock solutions of test compounds in DMSO were diluted in DMEM to ≤0.1% final DMSO concentration. Cells were treated with various concentrations (2.5–25 µM) of tested compounds for 48 h, and the MTT solution (0.5 mg/mL) was added. After 4 h of incubation at 37 °C for MTT-formazan formation, the supernatant was discarded and 100 µL of DMSO was applied into each well to dissolve formazan crystals. Absorbance at 490 nm was determined spectrophotometrically by using a microplate reader (Epoch, BioTek Instruments, Inc., Winooski, VT, USA).

Structure (SMILES) | melting point [°C] | Cell Glucose Uptake (%) [1] | CC50 at 48 h [2] [µM]
Nc1nccc(-c2c[nH]c3ccc(Br)cc23)n1 [meridianin C] | – | < 5% | 13
Cc1ccc(C(=O)Nc2ccc(-c3cnc(N)nc3-c3c[nH]c4ccc(Br)cc34)cc2)cc1 [A21, N-(4-(2-amino-4-(5-bromo-1H-indol-3-yl)pyrimidin-5-yl)phenyl)-4-methylbenzamide] | 291.7 to 292.4 | 24% | 6.9
Nc1ncc(-c2ccc(NC(=O)c3ccc(C(F)(F)F)cc3)cc2)c(-c2c[nH]c3ccc(Br)cc23)n1 [A18, N-(4-(2-amino-4-(5-bromo-1H-indol-3-yl)pyrimidin-5-yl)phenyl)-4-(trifluoromethyl) Benzamide] | 312.7 to 313.4 | – | 4.2
COc1cccc(C(=O)Nc2ccc(-c3cnc(N)nc3-c3c[nH]c4ccc(Br)cc34)cc2)c1 [A23, N-(4-(2-amino-4-(5-bromo-1H-indol-3-yl)pyrimidin-5-yl)phenyl)-3-methoxybenzamide] | 172.6 to 173.3 | – | 14.7
Nc1ncc(-c2ccc(NC(=O)c3ccccc3Cl)cc2)c(-c2c[nH]c3ccc(Br)cc23)n1 [A10, N-(4-(2-amino-4-(5-bromo-1H-indol-3-yl)pyrimidin-5-yl)phenyl)-2-chlorobenzamide] | 211.5 to 212.4 | – | 18.4
Cn1sc(=O)n(Cc2ccccc2)c1=O [TDZD-8, 4-benzyl-2-methyl-1,2,4-thiadiazolidine-3,5-dione, reference compound] | – | 16% | > 25
CCCC(=O)Nc1ccc(-c2cnc(N)nc2-c2c[nH]c3ccc(Br)cc23)cc1 [A2, N-(4-(2-amino-4-(5-bromo-1H-indol-3-yl)pyrimidin-5-yl)phenyl) Butyramide] | 187.6 to 188.3 | – | > 25
COc1ccc(C(=O)Nc2ccc(-c3cnc(N)nc3-c3c[nH]c4ccc(Br)cc34)cc2)cc1 [A24, N-(4-(2-amino-4-(5-bromo-1H-indol-3-yl)pyrimidin-5-yl)phenyl)-4-methoxybenzamide] | 184.6 to 185.3 | – | 4.3
Nc1ncc(-c2ccc(NC(=O)c3ccccc3)cc2)c(-c2c[nH]c3ccc(Br)cc23)n1 [A6, N-(4-(2-amino-4-(5-bromo-1H-indol-3-yl)pyrimidin-5-yl)phenyl) Benzamide] | 187.9 to 188.6 | – | 12.5
Nc1ncc(-c2ccc(NC(=O)c3cccc(F)c3)cc2)c(-c2c[nH]c3ccc(Br)cc23)n1 [A8, N-(4-(2-amino-4-(5-bromo-1H-indol-3-yl)pyrimidiN-5-yl)phenyl)-3-fluorobenzamide] | 183.6 to 184.3 | – | 6.8
Nc1ncc(-c2ccc(NC(=O)c3cccc(Br)c3)cc2)c(-c2c[nH]c3ccc(Br)cc23)n1 [A14, N-(4-(2-amino-4-(5-bromo-1H-indol-3-yl)pyrimidin-5-yl)phenyl)-3-bromobenzamide] | 176.6 to 177.3 | – | > 25
Nc1ncc(-c2ccc(NC(=O)c3cccs3)cc2)c(-c2c[nH]c3ccc(Br)cc23)n1 [A27, N-(4-(2-amino-4-(5-bromo-1H-indol-3-yl)pyrimidin-5-yl)phenyl) thiophene-2-carboxamide] | 303.8 to 304.4 | – | 10
Nc1ncc(-c2ccc(NC(=O)c3ccc4ccccc4c3)cc2)c(-c2c[nH]c3ccc(Br)cc23)n1 [A29, N-(4-(2-amino-4-(5-bromo-1H-indol-3-yl)pyrimidin-5-yl)phenyl)-2-naphthamide] | 189.3 to 190.2 | – | > 25
Nc1ncc(-c2ccc(NC(=O)c3cc4ccccc4cn3)cc2)c(-c2c[nH]c3ccc(Br)cc23)n1 [A28, N-(4-(2-amino-4-(5-bromo-1H-indol-3-yl)pyrimidin-5-yl)phenyl) isoquinoline-3-carboxamide] | 189.3 to 190.2 | – | > 25

Now from value to compound, other results behind:

melting point [°C] | Structure (SMILES) | Cell Glucose Uptake (%) [1] | CC50 at 48 h [2] [µM]
207.9 to 208.3 | COc1ccccc1Nc1nccc(-c2c[nH]c3ccc(Br)cc23)n1 [B16, 4-(5-Bromo-1H-indol-3-yl)-N-(2-methoxyphenyl) pyrimidin-2-amine] | 17% | 21.4
177.8 to 178.4 | Brc1ccc2[nH]cc(-c3ccnc(Nc4ccccc4Br)n3)c2c1 [B7, 4-(5-Bromo-1H-indol-3-yl)-N-(2-bromophenyl) pyrimidin-2-amine] | 26% | > 25
245.7 to 246.3 | COc1ccc(Nc2nccc(-c3c[nH]c4ccc(Br)cc34)n2)cc1 [B18, 4-(5-Bromo-1H-indol-3-yl)-N-(4-methoxyphenyl) pyrimidin-2-amine] | 6.1% | 6
211.8 to 212.4 | Fc1cccc(Nc2nccc(-c3c[nH]c4ccc(Br)cc34)n2)c1 [B2, 4-(5-Bromo-1H-indol-3-yl)-N-(3-fluorophenyl) pyrimidin-2-amine] | no change | 10.7
150.5 to 151.3 | FC(F)(F)c1ccccc1Nc1nccc(-c2c[nH]c3ccc(Br)cc23)n1 [B10, 4-(5-Bromo-1H-indol-3-yl)-N-(2-(trifluoromethyl)phenyl) pyrimidin-2-amine] | 20.2% | > 25
276.7 to 277.5 | Brc1ccc(Nc2nccc(-c3c[nH]c4ccc(Br)cc34)n2)cc1 [B9, 4-(5-Bromo-1H-indol-3-yl)-N-(4-bromophenyl) pyrimidin-2-amine] | 12.6% | 20.3
206.6 to 207.1 | Fc1ccccc1Nc1nccc(-c2c[nH]c3ccc(Br)cc23)n1 [B1, 4-(5-Bromo-1H-indol-3-yl)-N-(2-fluorophenyl) pyrimidin-2-amine] | 20% | 10.5
273.5 to 274.8 | Clc1ccc(Nc2nccc(-c3c[nH]c4ccc(Br)cc34)n2)cc1 [B6, 4-(5-Bromo-1H-indol-3-yl)-N-(4-chlorophenyl) pyrimidin-2-amine] | 14.4% | 21.1
110.5 to 111.3 | CC(C)c1ccccc1Nc1nccc(-c2c[nH]c3ccc(Br)cc23)n1 [B19, 4-(5-Bromo-1H-indol-3-yl)-N-(2-isopropylphenyl) pyrimidin-2-amine] | 13% | > 25
246.8 to 247.7 | Fc1ccc(Nc2nccc(-c3c[nH]c4ccc(Br)cc34)n2)cc1 [B3, 4-(5-Bromo-1H-indol-3-yl)-N-(4-fluorophenyl) pyrimidin-2-amine] | 7.4% | 12.8
244.3 to 245.6 | COc1cccc(OC)c1Nc1nccc(-c2c[nH]c3ccc(Br)cc23)n1 [B31, 4-(5-Bromo-1H-indol-3-yl)-N-(2,6-dimethoxyphenyl) pyrimidin-2-amine] | 16% | 19.2
255.6 to 256.8 | COc1cc(Nc2nccc(-c3c[nH]c4ccc(Br)cc34)n2)cc(OC)c1 [B28, 4-(5-Bromo-1H-indol-3-yl)-N-(3,5-dimethoxyphenyl) pyrimidin-2-amine] | – | 10
197.6 to 198.7 | Brc1ccc2[nH]cc(-c3ccnc(Nc4ccccc4)n3)c2c1 [B22, 4-(5-Bromo-1H-indol-3-yl)-N-phenylpyrimidin-2-amine] | – | 10.4
193.4 to 193.7 | Brc1cc(Br)cc(Nc2nccc(-c3c[nH]c4ccc(Br)cc34)n2)c1 [B25, 4-(5-Bromo-1H-indol-3-yl)-N-(3,5-dibromophenyl) pyrimidin-2-amine] | – | > 25
173.8 to 174.6 | Clc1ccccc1Nc1nccc(-c2c[nH]c3ccc(Br)cc23)n1 [B4, 4-(5-Bromo-1H-indol-3-yl)-N-(2-chlorophenyl) pyrimidin-2-amine] | 22% | > 25
223.6 to 224.3 | Clc1cc(Cl)cc(Nc2nccc(-c3c[nH]c4ccc(Br)cc34)n2)c1 [B24, 4-(5-Bromo-1H-indol-3-yl)-N-(3,5-dichlorophenyl) pyrimidin-2-amine] | – | 10.5
187.6 to 188.4 | Cc1ccccc1Nc1nccc(-c2c[nH]c3ccc(Br)cc23)n1 [B13, 4-(5-Bromo-1H-indol-3-yl)-N-(o-tolyl) pyrimidin-2-amine] | 14.9% | > 25
